Data reported in patent publication US6355799B1, “Substituted benzene compounds, process for their preparation, and herbicidal and defoliant compositions containing them” (ISK Americas Incorporated, priority 1997, dated 2002).

What was measured:
Assay type in all cases: in vivo
[1] = system: redroot pigweed (Amaranthus retroflexus, AMARE); assay: Pre-emerge test, greenhouse herbicide activity screening; conditions: pre-emerge, rated 14 days after application, 0 = no damage, 100 = complete death
How it was run: (§1)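 Plants grown in 10 cm pots of sandy loam mix received acetone-dissolved compounds through a moving flat-fan nozzle. Doses ranged from 15 to 1000 g ai/ha. Pre-emerge pots were seeded one day earlier, post-emerge pots 8–21 days earlier. Fourteen days on, each pot was graded 0–100 for damage.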

[2] = system: barnyardgrass (Echinochloa crus-galli, ECHCG); assay: as above; conditions: pre-emerge, rated 14 days after application, 0 = no damage, 100 = complete death
How it was run: (§2)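 Rating: 0–100 visual injury, 14 DAA. Application: acetone, 187 l/ha, 15–1000 g ai/ha, flat-fan track sprayer with nozzle 40–45 cm above soil or canopy. Post-emerge runs used 0.25% v/v surfactant on 2–3 leaf plants.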

[3] = system: common ragweed (Ambrosia artemisizfolia L., AMBEL); assay: as above; conditions: pre-emerge, rated 14 days after application, 0 = no damage, 100 = complete death
How it was run: as §2

[4] = system: green foxtail (Setaria viridis, SETVI); assay: as above; conditions: pre-emerge, rated 14 days after application, 0 = no damage, 100 = complete death
How it was run: as §2

[5] = system: ivyleaf morningglory (Ipomoea hederacea, IPOHE); assay: as above; conditions: pre-emerge, rated 14 days after application, 0 = no damage, 100 = complete death
How it was run: as §2

[6] = system: johnsongrass (Sorghum halepense, SORHA); assay: as above; conditions: pre-emerge, rated 14 days after application, 0 = no damage, 100 = complete death
How it was run: as §2

[7] = system: lambsquarters (Chenopodium album, CHEAL); assay: as above; conditions: pre-emerge, rated 14 days after application, 0 = no damage, 100 = complete death
How it was run: as §2

[8] = system: large crabgrass (Digitaria sanguinalis, DIGSA); assay: as above; conditions: pre-emerge, rated 14 days after application, 0 = no damage, 100 = complete death
How it was run: as §2

[9] = system: sicklepod (Cassia obtusifolia, CASOB); assay: as above; conditions: pre-emerge, rated 14 days after application, 0 = no damage, 100 = complete death
How it was run: as §2

[10] = system: velvetleaf (Abutilon theophrasti, ABUTH); assay: as above; conditions: pre-emerge, rated 14 days after application, 0 = no damage, 100 = complete death
How it was run: as §2

[11] = system: field corn (Zea mays L., var. Dekalb 535, CORN); assay: Pre-emerge test, crop safety; conditions: pre-emerge, rated 14 days after application, 0 = no damage, 100 = complete death
How it was run: (§3)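 Sandy loam pots; pre-emerge: sown 1 d pre-spray, surface-watered after, then bottom-watered. Post-emerge: sown 8–21 d before, 2–3 leaf stage, + 0.25% v/v NIS, bottom-watered. Acetone, 187 l/ha track spray, 15–1000 g ai/ha. 0–100 injury score, day 14.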

[12] = system: upland rice (Oryza sp., var. Tebonnet, RICE); assay: Pre-emerge test, crop safety; conditions: pre-emerge, rated 14 days after application, 0 = no damage, 100 = complete death
How it was run: as §3

[13] = system: barnyardgrass (Echinochloa crus-galli, ECHCG); assay: Post-emerge test, greenhouse herbicide activity screening; conditions: phytotoxicity rating 0-100 (0 no damage, 100 complete death), 14 days after application
How it was run: as §2

[14] = system: common ragweed (Ambrosia artemisizfolia L., AMBEL); assay: as above; conditions: phytotoxicity rating 0-100 (0 no damage, 100 complete death), 14 days after application
How it was run: as §2

[15] = system: green foxtail (Setaria viridis, SETVI); assay: as above; conditions: phytotoxicity rating 0-100 (0 no damage, 100 complete death), 14 days after application
How it was run: as §2

[16] = system: ivyleaf morningglory (Ipomoea hederacea, IPOHE); assay: as above; conditions: phytotoxicity rating 0-100 (0 no damage, 100 complete death), 14 days after application
How it was run: as §2

[17] = system: johnsongrass (Sorghum halepense, SORHA); assay: as above; conditions: phytotoxicity rating 0-100 (0 no damage, 100 complete death), 14 days after application
How it was run: as §2

[18] = system: lambsquarters (Chenopodium album, CHEAL); assay: as above; conditions: phytotoxicity rating 0-100 (0 no damage, 100 complete death), 14 days after application
How it was run: as §2

[19] = system: large crabgrass (Digitaria sanguinalis, DIGSA); assay: as above; conditions: phytotoxicity rating 0-100 (0 no damage, 100 complete death), 14 days after application
How it was run: as §2

[20] = system: redroot pigweed (Amaranthus retroflexus, AMARE); assay: as above; conditions: phytotoxicity rating 0-100 (0 no damage, 100 complete death), 14 days after application
How it was run: as §2

[21] = system: sicklepod (Cassia obtusifolia, CASOB); assay: as above; conditions: phytotoxicity rating 0-100 (0 no damage, 100 complete death), 14 days after application
How it was run: as §2

[22] = system: velvetleaf (Abutilon theophrasti, ABUTH); assay: as above; conditions: phytotoxicity rating 0-100 (0 no damage, 100 complete death), 14 days after application
How it was run: as §2

[23] = system: field corn (Zea mays L., var. Dekalb 535, CORN); assay: Post-emerge test, crop safety; conditions: phytotoxicity rating 0-100 (0 no damage, 100 complete death), 14 days after application
How it was run: as §1

[24] = system: upland rice (Oryza sp., var. Tebonnet, RICE); assay: Post-emerge test, crop safety; conditions: phytotoxicity rating 0-100 (0 no damage, 100 complete death), 14 days after application
How it was run: as §1

`COc1c(Cl)cc(F)c(-n2c(=O)cc(C(F)(F)F)n(C)c2=O)c1NC(C)=O` [2-1] was tested, and the “Pre-emerge Herbicidal Activity AMARE (phytotoxicity rating, scale 0-100)” value ([1]; 63 g ai/ha) was 60, the “Pre-emerge Herbicidal Activity AMARE (phytotoxicity rating, scale 0-100)” value ([1]; 250 g ai/ha) was 100 and the “Pre-emerge Herbicidal Activity ECHCG (phytotoxicity rating, scale 0-100)” value ([2]; 63 g ai/ha) was 10. For the same compound, the “Pre-emerge Herbicidal Activity ECHCG (phytotoxicity rating, scale 0-100)” value ([2]; 250 g ai/ha) was 70, the “Pre-emerge Herbicidal Activity AMBEL (phytotoxicity rating, scale 0-100)” value ([3]; 63 g ai/ha) was 50 and the “Pre-emerge Herbicidal Activity AMBEL (phytotoxicity rating, scale 0-100)” value ([3]; 250 g ai/ha) was 100. The “Pre-emerge Herbicidal Activity SETVI (phytotoxicity rating, scale 0-100)” value ([4]; 63 g ai/ha) was 80, the “Pre-emerge Herbicidal Activity SETVI (phytotoxicity rating, scale 0-100)” value ([4]; 250 g ai/ha) was 95 and the “Pre-emerge Herbicidal Activity IPOHE (phytotoxicity rating, scale 0-100)” value ([5]; 63 g ai/ha) was 95. The “Pre-emerge Herbicidal Activity IPOHE (phytotoxicity rating, scale 0-100)” value ([5]; 250 g ai/ha) was 100, the “Pre-emerge Herbicidal Activity SORHA (phytotoxicity rating, scale 0-100)” value ([6]; 63 g ai/ha) was 30 and the “Pre-emerge Herbicidal Activity SORHA (phytotoxicity rating, scale 0-100)” value ([6]; 250 g ai/ha) was 70. For the same compound, the “Pre-emerge Herbicidal Activity CHEAL (phytotoxicity rating, scale 0-100)” value ([7]; 63 g ai/ha) was 90, the “Pre-emerge Herbicidal Activity CHEAL (phytotoxicity rating, scale 0-100)” value ([7]; 250 g ai/ha) was 100 and the “Pre-emerge Herbicidal Activity DIGSA (phytotoxicity rating, scale 0-100)” value ([8]; 63 g ai/ha) was 20. The “Pre-emerge Herbicidal Activity DIGSA (phytotoxicity rating, scale 0-100)” value ([8]; 250 g ai/ha) was 100, the “Pre-emerge Herbicidal Activity CASOB (phytotoxicity rating, scale 0-100)” value ([9]; 63 g ai/ha) was 80 and the “Pre-emerge Herbicidal Activity CASOB (phytotoxicity rating, scale 0-100)” value ([9]; 250 g ai/ha) was 100. The “Pre-emerge Herbicidal Activity ABUTH (phytotoxicity rating, scale 0-100)” value ([10]; 63 g ai/ha) was 100, the “Pre-emerge Herbicidal Activity ABUTH (phytotoxicity rating, scale 0-100)” value ([10]; 250 g ai/ha) was 100 and the “Pre-emerge crop damage CORN (phytotoxicity rating, scale 0-100)” value ([11]; 63 g ai/ha) was 30. For the same compound, the “Pre-emerge crop damage CORN (phytotoxicity rating, scale 0-100)” value ([11]; 250 g ai/ha) was 80, the “Pre-emerge crop damage RICE (phytotoxicity rating, scale 0-100)” value ([12]; 63 g ai/ha) was 80 and the “Pre-emerge crop damage RICE (phytotoxicity rating, scale 0-100)” value ([12]; 250 g ai/ha) was 90. For the same compound, the “Post-emerge Herbicidal Activity ECHCG” value ([13]; 63 g ai/ha) was 0, the “Post-emerge Herbicidal Activity ECHCG” value ([13]; 250 g ai/ha) was 10 and the “Post-emerge Herbicidal Activity AMBEL” value ([14]; 63 g ai/ha) was 30. For the same compound, the “Post-emerge Herbicidal Activity AMBEL” value ([14]; 250 g ai/ha) was 85, the “Post-emerge Herbicidal Activity SETVI” value ([15]; 63 g ai/ha) was 0 and the “Post-emerge Herbicidal Activity SETVI” value ([15]; 250 g ai/ha) was 30. The “Post-emerge Herbicidal Activity IPOHE” value ([16]; 63 g ai/ha) was 100, the “Post-emerge Herbicidal Activity IPOHE” value ([16]; 250 g ai/ha) was 100 and the “Post-emerge Herbicidal Activity SORHA” value ([17]; 63 g ai/ha) was 0. For the same compound, the “Post-emerge Herbicidal Activity SORHA” value ([17]; 250 g ai/ha) was 0, the “Post-emerge Herbicidal Activity CHEAL” value ([18]; 63 g ai/ha) was 95 and the “Post-emerge Herbicidal Activity CHEAL” value ([18]; 250 g ai/ha) was 100. For the same compound, the “Post-emerge Herbicidal Activity DIGSA” value ([19]; 63 g ai/ha) was 0, the “Post-emerge Herbicidal Activity DIGSA” value ([19]; 250 g ai/ha) was 0 and the “Post-emerge Herbicidal Activity AMARE” value ([20]; 63 g ai/ha) was 50. The “Post-emerge Herbicidal Activity AMARE” value ([20]; 250 g ai/ha) was 100, the “Post-emerge Herbicidal Activity CASOB” value ([21]; 63 g ai/ha) was 50 and the “Post-emerge Herbicidal Activity CASOB” value ([21]; 250 g ai/ha) was 100. The “Post-emerge Herbicidal Activity ABUTH” value ([22]; 63 g ai/ha) was 100, the “Post-emerge Herbicidal Activity ABUTH” value ([22]; 250 g ai/ha) was 100 and the “Post-emerge Herbicidal Activity CORN (crop damage)” value ([23]; 63 g ai/ha) was 10. The “Post-emerge Herbicidal Activity CORN (crop damage)” value ([23]; 250 g ai/ha) was 15, the “Post-emerge Herbicidal Activity RICE (crop damage)” value ([24]; 63 g ai/ha) was 30 and the “Post-emerge Herbicidal Activity RICE (crop damage)” value ([24]; 250 g ai/ha) was 70.
